Data on 40 compounds can be found in patent US20260132127A1, “NOVEL SPIRO COMPOUND” (MITSUBISHI TANABE PHARMA CORPORATION, priority 2021, published 2026).

In general, IC50 refers to the midpoint of a concentration-inhibition curve. Read a high IC50 as lower potency.

For the test, the target named is T1, human TRH-DE (Homo sapiens, UniProt Q9UKU6).
T1 construct: expressed in transfected cells; host or cells: Expi 293 cells (transient expression), membrane fraction
T1 sequence (Q9UKU6 1-1069): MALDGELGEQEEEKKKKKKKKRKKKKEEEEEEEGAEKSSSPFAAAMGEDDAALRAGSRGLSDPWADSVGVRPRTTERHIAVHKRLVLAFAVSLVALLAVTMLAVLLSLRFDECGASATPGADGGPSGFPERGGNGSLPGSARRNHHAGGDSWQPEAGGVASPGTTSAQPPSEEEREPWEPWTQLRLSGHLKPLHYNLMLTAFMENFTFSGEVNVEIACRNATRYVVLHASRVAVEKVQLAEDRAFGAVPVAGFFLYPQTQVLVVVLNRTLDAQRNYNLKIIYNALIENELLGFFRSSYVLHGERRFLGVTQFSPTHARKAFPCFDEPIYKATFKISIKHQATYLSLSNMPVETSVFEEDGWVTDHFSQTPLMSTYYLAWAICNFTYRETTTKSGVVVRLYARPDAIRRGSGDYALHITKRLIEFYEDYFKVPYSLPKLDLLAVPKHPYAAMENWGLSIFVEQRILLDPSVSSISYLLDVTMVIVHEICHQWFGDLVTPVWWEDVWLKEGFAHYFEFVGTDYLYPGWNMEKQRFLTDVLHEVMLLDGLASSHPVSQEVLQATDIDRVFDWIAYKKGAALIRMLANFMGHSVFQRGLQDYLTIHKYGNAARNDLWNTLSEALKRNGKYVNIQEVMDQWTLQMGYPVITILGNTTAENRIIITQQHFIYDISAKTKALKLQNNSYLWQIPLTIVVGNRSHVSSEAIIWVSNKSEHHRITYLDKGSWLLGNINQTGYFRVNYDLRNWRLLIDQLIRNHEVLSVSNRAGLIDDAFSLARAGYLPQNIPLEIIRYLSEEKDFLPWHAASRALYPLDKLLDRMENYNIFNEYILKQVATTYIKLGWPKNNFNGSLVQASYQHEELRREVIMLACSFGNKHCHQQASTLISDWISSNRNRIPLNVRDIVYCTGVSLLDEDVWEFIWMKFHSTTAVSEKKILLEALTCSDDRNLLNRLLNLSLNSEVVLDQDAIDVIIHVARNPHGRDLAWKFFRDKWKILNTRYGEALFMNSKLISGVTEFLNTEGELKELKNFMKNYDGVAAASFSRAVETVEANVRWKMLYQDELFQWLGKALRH
The experiment in a line: TRH-DE inhibition test (RapidFire MS measurement of product Cyclo (His-Pro)). The conditions noted are these: membrane fraction of Expi 293 cells expressing human TRH-DE; 10 μM TRH substrate; room temperature, 2 hours; 16-point concentration test. In kind it is biochemical. The procedure, abridged: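 Inhibition derived from product/internal-standard ratios of Cyclo(His-Pro), quantified by RapidFire triple-quadrupole MS after acetonitrile:methanol quench, with IC50 fitted over 16 concentrations. Enzyme source: membranes of Expi 293 cells transiently expressing human TRH-DE, 4 μg/ml, pH 7.4 phosphate buffer. Incubation with 10 μM substrate ran 2 h at room temperature.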

Molecules are shown by their SMILES.

As for `Cc1onc2c1OC[C@@H](C)N(C1CC3(C1)CN(S(=O)(=O)c1ccccc1F)C3)C2=O` [Example 324], inhibition was half-maximal at 37 nM (IC50). `C[C@@H]1COc2nc(N3CC(F)C3)ncc2C(=O)N1C1CC2(C1)CN(S(=O)(=O)c1ccccc1F)C2` [Example 399] registered an IC50 of 5 nM.

Regarding `C[C@@H]1COc2nc(N3CC4(CCOC4)C3)ncc2C(=O)N1C1CC2(C1)CN(S(=O)(=O)c1ccccc1F)C2` [Example 408], half-maximal inhibition (IC50) required 4 nM. With `CC1C=Cc2ncc(C(F)(F)F)cc2C(=O)N1C1CC2(C1)CN(S(=O)(=O)c1ccccc1F)C2` (racemic) [Example 115] the figure was 83 nM; with `C[C@@H]1COc2nc(N3CCCC3)ncc2C(=O)N1C1CC2(C1)CN(S(=O)(=O)c1ccccc1F)C2` [Example 381], 2 nM.

As to `CC1(O)c2cc(C(F)(F)F)cnc2C(=O)N1C1CC2(C1)CN(S(=O)(=O)c1ccccc1F)C2` (stereo not shown) [Example 275, 6-[2-(2-fluorophenyl)sulfonyl-2-azaspiro[3.3]heptan-6-yl]-5-hydroxy-5-methyl-3-(trifluoromethyl)pyrrolo[3,4-b]pyridin-7-one], the half-inhibitory concentration (IC50) amounted to 42 nM. For the compound `COc1ccc2c(n1)CCC(C)N(C1CC3(C1)CN(S(=O)(=O)c1ccccc1F)C3)C2=O` (racemic) [Example 249, 6-[2-(2-fluorophenyl)sulfonyl-2-azaspiro[3.3]heptan-6-yl]-2-methoxy-7-methyl-8,9-dihydro-7H-pyrido[3,2-c]azepin-5-one], half-maximal inhibition (IC50) was put at 112 nM. The result for `C[C@@H]1COc2nn(C)c(C3CC3)c2C(=O)N1C1CC2(C1)CN(S(=O)(=O)c1ccccc1F)C2` [Example 321] reads 74 nM; that for `C[C@@H]1C=Cc2oc(C3CC3)nc2C(=O)N1C1CC2(C1)CN(S(=O)(=O)c1ccccc1F)C2` [Example 128], 224 nM; that for `C[C@@H]1COc2nc(N3CC[C@H](C#N)C3)ncc2C(=O)N1C1CC2(C1)CN(S(=O)(=O)c1ccccc1F)C2` [Example 401], 2 nM. With `C[C@@H]1COc2c(cnn2-c2ccccc2)C(=O)N1C1CC2(C1)CN(S(=O)(=O)c1ccccc1F)C2` [Example 204] the figure was 34 nM; with `CC1CCc2cc(C(F)(F)F)cnc2C(=O)N1C1CC2(C1)CN(S(=O)(=O)c1ccccc1F)C2` (racemic) [Example 86], 60 nM; with `CC1CCN(c2cc3c(cn2)C(=O)N(C2CC4(C2)CN(S(=O)(=O)c2ccccc2F)C4)[C@H](C)CO3)CC1` [Example 153], 1 nM. The result for `C[C@@H]1COc2cc(N3CCC(F)CC3)ncc2C(=O)N1C1CC2(C1)CN(S(=O)(=O)c1ccccc1F)C2` [Example 155] reads 1 nM.

Compound `C[C@@H]1CCc2nc([C@H]3C[C@H]3F)sc2C(=O)N1C1CC2(C1)CN(S(=O)(=O)c1ccccc1F)C2` [Example 95] showed an IC50 of 4 nM. `C[C@@H]1COc2cc(N3CCC(C(F)(F)F)C3)ncc2C(=O)N1C1CC2(C1)CN(S(=O)(=O)c1ccccc1F)C2` (mixture of isomers) [Example 145] returned an IC50 of 1 nM. For `C[C@@H]1COc2cc(C#N)cnc2C(=O)N1C1CC2(C1)CN(S(=O)(=O)c1ccccc1F)C2` [Example 332, (3R)-4-[2-(2-fluorophenyl)sulfonyl-2-azaspiro[3.3]heptan-6-yl]-3-methyl-5-oxo-2,3-dihydropyrido[2,3-f][1,4]oxazepin-8-carbonitrile], it took 4 nM to reach half-maximal inhibition (IC50). `C[C@@H]1COc2cc(Br)cnc2C(=O)N1C1CC2(C1)CN(S(=O)(=O)c1ccccc1F)C2` [Example 18] returned an IC50 of 1 nM.

`CC1CCc2nc(C(F)(F)F)sc2C(=O)N1C1CC2(C1)CN(S(=O)(=O)c1ccccc1F)C2` (racemic) [Example 92]: the IC50 was 12 nM. For the compound `C[C@@H]1CNc2ncccc2C(=O)N1C1CC2(C1)CN(S(=O)(=O)c1ccccc1F)C2` [Example 255], the midpoint of inhibition, the IC50, lay at 7 nM.

`CC1COc2ccc(F)nc2C(=O)N1C1CC2(C1)CN(S(=O)(=O)c1ccccc1F)C2` (racemic) [Example 9] yielded an IC50 of 14 nM. `C[C@@H]1COc2nc(OC3CCCC3)ncc2C(=O)N1C1CC2(C1)CN(S(=O)(=O)c1ccccc1F)C2` [Example 372]: it took 4 nM to reach half-maximal inhibition (IC50). Regarding `Cc1nn(C)c2c1C(=O)N(C1CC3(C1)CN(S(=O)(=O)c1ccccc1F)C3)[C@H](C)CO2` [Example 205], the IC50 worked out at 14 nM. For the compound `C[C@@H]1CNC(=O)N1C1CC2(C1)CN(S(=O)(=O)c1ccccc1F)C2` [Example 435, (5R)-1-[2-(2-fluorophenyl)sulfonyl-2-azaspiro[3.3]heptan-6-yl]-5-methylimidazolidin-2-one], half-maximal inhibition (IC50) was put at 492 nM. `C[C@@H]1COc2cc(C3CC3)cnc2C(=O)N1C1CC2(C1)CN(S(=O)(=O)c1ccccc1F)C2` [Example 311] came in with an IC50 of 1 nM. In turn, `CC1CCc2sc(C(F)(F)F)nc2C(=O)N1C1CC2(C1)CN(S(=O)(=O)c1ccccc1F)C2` (racemic) [Example 98] registered an IC50 of 21 nM. For the compound `C[C@@H]1COc2cc(C(F)(F)F)ncc2C(=O)N1C1CC2(C1)CN(S(=O)(=O)c1ccccc1F)C2` [Example 24], half-maximal inhibition (IC50) required 3 nM. Regarding `C[C@@H]1C=Cc2nc(C3(C(F)(F)F)CC3)sc2C(=O)N1C1CC2(C1)CN(S(=O)(=O)c1ccccc1F)C2` [Example 124], it took 17 nM to reach half-maximal inhibition (IC50). As to `CCc1ncc2c(n1)OC[C@@H](C)N(C1CC3(C1)CN(S(=O)(=O)c1ccccc1F)C3)C2=O` [Example 368], the IC50 came to 13 nM. `CCC1COc2ncccc2C(=O)N1C1CC2(C1)CN(S(=O)(=O)c1ccccc1F)C2` (racemic) [Example 59] registered an IC50 of 33 nM.

Take `CC1COc2ncccc2C(=O)N1C1CC2(C1)CN(S(=O)(=O)c1ccccc1)C2` (stereo not shown) [Example 84, 4-[2-(benzenesulfonyl)-2-azaspiro[3.3]heptan-6-yl]-3-methyl-2,3-dihydropyrido[3,2-f][1,4]oxazepin-5-one]: half-maximal inhibition (IC50) required 85 nM. `C[C@@H]1CCc2oc(C3CC3)nc2C(=O)N1C1CC2(C1)CN(S(=O)(=O)c1ccccc1F)C2` [Example 101] came in with an IC50 of 14 nM.

The compound `C[C@@H]1COc2nc(O[C@H]3CCOC3)ncc2C(=O)N1C1CC2(C1)CN(S(=O)(=O)c1ccccc1F)C2` [Example 377] returned an IC50 of 14 nM. The result for `CCC1(O)c2ccccc2C(=O)N1C1CC2(C1)CN(S(=O)(=O)c1cc(OC)ccc1F)C2` (racemic) [Example 289] reads 338 nM; that for `CC1COc2cccnc2C(=O)N1C1CC2(C1)CN(S(=O)(=O)c1ccccc1F)C2` (racemic) [Example 49], 6 nM; that for `C[C@@H]1Cn2nc(C(C)(F)F)cc2C(=O)N1C1CC2(C1)CN(S(=O)(=O)c1ccccc1F)C2` [Example 224], 41 nM. The result for `C[C@@H]1COc2nc(N3C[C@@H]4C[C@H]3CO4)ncc2C(=O)N1C1CC2(C1)CN(S(=O)(=O)c1ccccc1F)C2` [Example 397] reads 7 nM; that for `CC1(O)c2cc(F)cnc2C(=O)N1C1CC2(C1)CN(S(=O)(=O)c1ccccc1F)C2` (racemic) [Example 279], 112 nM; that for `C[C@@H]1Cn2cc(C3CC3)nc2C(=O)N1C1CC2(C1)CN(S(=O)(=O)c1ccccc1F)C2` [Example 330], 19 nM. `CC1c2ccccc2OCC(=O)N1C1CC2(C1)CN(S(=O)(=O)c1ccccc1F)C2` (racemic) [Example 46]: the IC50 came to 129 nM.
